Results reported in ChEMBL document CHEMBL1629667, “Activities of dalbavancin against a worldwide collection of 81,673 gram-positive bacterial isolates” (2009).
Values after ≈ are worked out from the molar mass of the structure shown.

Experiments:
Type in all cases: functional
Enterococcus faecalis [1] = assay: Antimicrobial activity against Vancomycin-nonsusceptible Enterococcus faecalis assessed as percent resistant isolates by broth microdilution method
Enterococcus faecium [2] = assay: Antimicrobial activity against Vancomycin-nonsusceptible Enterococcus faecium assessed as percent resistant isolates by broth microdilution method
Enterococcus faecium [3] = assay: Antimicrobial activity against Vancomycin-susceptible Enterococcus faecium assessed as percent resistant isolates by broth microdilution method
Enterococcus faecalis [4] = assay: Antimicrobial activity against Vancomycin-susceptible Enterococcus faecalis by broth microdilution method
Enterococcus faecalis [5] = assay: Antimicrobial activity against Vancomycin-nonsusceptible Enterococcus faecalis by broth microdilution method
Enterococcus faecium [6] = assay: Antimicrobial activity against Vancomycin-susceptible Enterococcus faecium by broth microdilution method
Enterococcus faecium [7] = assay: Antimicrobial activity against Vancomycin-nonsusceptible Enterococcus faecium by broth microdilution method
Enterococcus faecalis [8] = assay: Antimicrobial activity against Vancomycin-susceptible Enterococcus faecalis assessed as percent susceptible isolate by broth microdilution method
Enterococcus faecalis [9] = assay: Antimicrobial activity against Vancomycin-nonsusceptible Enterococcus faecalis assessed as percent susceptible isolate by broth microdilution method
Enterococcus faecium [10] = assay: Antimicrobial activity against Vancomycin-susceptible Enterococcus faecium assessed as percent susceptible isolate by broth microdilution method
Enterococcus faecium [11] = assay: Antimicrobial activity against Vancomycin-nonsusceptible Enterococcus faecium assessed as percent susceptible isolate by broth microdilution method
Enterococcus faecalis [12] = assay: Antimicrobial activity against Vancomycin-susceptible Enterococcus faecalis assessed as percent resistant isolates by broth microdilution method
Streptococcus [13] = assay: Antimicrobial activity against Beta-hemolytic Streptococcus assessed as percent resistant isolates by broth microdilution method
Streptococcus [14] = assay: Antimicrobial activity against viridans group Streptococcus assessed as percent resistant isolates by broth microdilution method
Staphylococcus aureus [15] = assay: Antimicrobial activity against Oxacillin-susceptible Staphylococcus aureus assessed as percent resistant isolates by broth microdilution method
Staphylococcus aureus [16] = assay: Antimicrobial activity against Oxacillin-resistant Staphylococcus aureus assessed as percent resistant isolate by broth microdilution method
Staphylococcus aureus [17] = assay: Antimicrobial activity against Oxacillin-susceptible Staphylococcus aureus by broth microdilution method
Staphylococcus aureus [18] = assay: Antimicrobial activity against Oxacillin-resistant Staphylococcus aureus by broth microdilution method
Staphylococcus [19] = assay: Antimicrobial activity against Oxacillin-susceptible coagulase-negative Staphylococcus by broth microdilution method
Staphylococcus [20] = assay: Antimicrobial activity against Oxacillin-resistant coagulase-negative Staphylococcus by broth microdilution method
Streptococcus [21] = assay: Antimicrobial activity against Beta-hemolytic Streptococcus by broth microdilution method
Streptococcus [22] = assay: Antimicrobial activity against viridans group Streptococcus by broth microdilution method
Staphylococcus aureus [23] = assay: Antimicrobial activity against Oxacillin-susceptible Staphylococcus aureus assessed as percent susceptible isolate by broth microdilution method
Staphylococcus aureus [24] = assay: Antimicrobial activity against Oxacillin-resistant Staphylococcus aureus assessed as percent susceptible isolate by broth microdilution method
Staphylococcus [25] = assay: Antimicrobial activity against Oxacillin-susceptible coagulase-negative Staphylococcus assessed as percent susceptible isolate by broth microdilution method
Staphylococcus [26] = assay: Antimicrobial activity against Oxacillin-resistant coagulase-negative Staphylococcus assessed as percent susceptible isolate by broth microdilution method
Streptococcus [27] = assay: Antimicrobial activity against Beta-hemolytic Streptococcus assessed as percent susceptible isolate by broth microdilution method
Streptococcus [28] = assay: Antimicrobial activity against viridans group Streptococcus assessed as percent susceptible isolate by broth microdilution method
Staphylococcus [29] = assay: Antimicrobial activity against Oxacillin-susceptible coagulase-negative Staphylococcus assessed as percent resistant isolate by broth microdilution method
Staphylococcus [30] = assay: Antimicrobial activity against Oxacillin-resistant coagulase-negative Staphylococcus assessed as percent resistant isolate by broth microdilution method

Row | Compound | MIC50 (Enterococcus faecalis [4]) | MIC90 (Enterococcus faecalis [4]) | Activity (Enterococcus faecalis [8]) | Activity (Enterococcus faecalis [9]) | Activity (Enterococcus faecium [10]) | Activity (Enterococcus faecium [11]) | MIC50 (Staphylococcus aureus [17]) | MIC90 (Staphylococcus aureus [17]) | MIC50 (Staphylococcus [19]) | MIC90 (Staphylococcus [19]) | MIC (Streptococcus [21]) | MIC50 (Streptococcus [21]) | MIC90 (Streptococcus [21]) | MIC50 (Streptococcus [22]) | MIC90 (Streptococcus [22]) | Activity (Staphylococcus aureus [23]) | Activity (Staphylococcus [25]) | Activity (Staphylococcus [26]) | Activity (Streptococcus [27]) | Activity (Streptococcus [28]) | further results
1 | CC1(C)S[C@@H]2[C@H](NC(=O)[C@H](N)c3ccccc3)C(=O)N2[C@H]1C(=O)O [AMPICILLIN] | ≤ 2 µg/mL | ≤ 2 µg/mL | 99.6% | 96% | 15.6% | 0.8% |  |  |  |  |  |  |  |  |  |  |  |  |  |  | Activity (Enterococcus faecalis [1]): 4%; Activity (Enterococcus faecium [2]): 99.2%; Activity (Enterococcus faecium [3]): 84.4%; MIC (Enterococcus faecalis [4]): ≤ 2 µg/mL; MIC (Enterococcus faecalis [5]): ≤ 2 µg/mL; MIC50 (Enterococcus faecalis [5]): ≤ 2 µg/mL; MIC90 (Enterococcus faecalis [5]): 4 µg/mL (≈ 11.4 µM); MIC50 (Enterococcus faecium [6]): > 16 µg/mL; MIC90 (Enterococcus faecium [6]): > 16 µg/mL; MIC50 (Enterococcus faecium [7]): > 16 µg/mL; MIC90 (Enterococcus faecium [7]): > 16 µg/mL; Activity (Enterococcus faecalis [12]): 0.2%
2 | C[C@H]1COc2c(N3CCN(C)CC3)c(F)cc3c(=O)c(C(=O)O)cn1c23.C[C@H]1COc2c(N3CCN(C)CC3)c(F)cc3c(=O)c(C(=O)O)cn1c23.O [LEVOFLOXACIN] |  |  |  |  |  |  | ≤ 0.5 µg/mL | ≤ 0.5 µg/mL | ≤ 0.5 µg/mL | 4 µg/mL | 0.5 µg/mL | 0.5 µg/mL | 1 µg/mL | 1 µg/mL | 2 µg/mL | 92.8% | 87.5% | 31.8% | 98.6% | 95.7% | Activity (Streptococcus [13]): 8.2%; Activity (Streptococcus [14]): 3.6%; Activity (Staphylococcus aureus [15]): 6.7%; Activity (Staphylococcus aureus [16]): 80.1%; MIC (Staphylococcus aureus [17]): ≤ 0.5 µg/mL; MIC50 (Staphylococcus aureus [18]): > 4 µg/mL; MIC90 (Staphylococcus aureus [18]): > 4 µg/mL; MIC (Staphylococcus [19]): ≤ 0.5 µg/mL; MIC50 (Staphylococcus [20]): 4 µg/mL; MIC90 (Staphylococcus [20]): > 4 µg/mL; Activity (Staphylococcus aureus [24]): 18.3%; Activity (Staphylococcus [29]): 11.1%; Activity (Staphylococcus [30]): 61.4%
3 | CO/N=C(\C(=O)N[C@@H]1C(=O)N2C(C(=O)O)=C(CSc3nc(=O)c(O)nn3C)CS[C@H]12)c1csc(N)n1 [CEFTRIAXONE] |  |  |  |  |  |  |  |  |  |  | 0.25 µg/mL (≈ 0.451 µM) | 0.25 µg/mL (≈ 0.451 µM) | 0.25 µg/mL (≈ 0.451 µM) | 0.25 µg/mL (≈ 0.451 µM) | 1 µg/mL (≈ 1.8 µM) |  |  |  | 99.9% | 92.5% | Activity (Streptococcus [14]): 4.3%; MIC (Streptococcus [22]): 0.25 µg/mL (≈ 0.451 µM)
4 | GENTAMICIN | < 500 µg/mL | > 1000 µg/mL | 68.5% | 28.4% | 61.8% | 64.3% | < 2 µg/mL | < 2 µg/mL | < 2 µg/mL | < 2 µg/mL |  |  |  |  |  | 97.1% | 95% | 50.7% |  |  | Activity (Enterococcus faecalis [1]): 71.6%; Activity (Enterococcus faecium [2]): 35.7%; Activity (Staphylococcus aureus [15]): 2.6%; Activity (Enterococcus faecium [3]): 38.2%; Activity (Staphylococcus aureus [16]): 24.8%; MIC50 (Staphylococcus aureus [18]): < 2 µg/mL; MIC90 (Staphylococcus aureus [18]): > 8 µg/mL; MIC50 (Staphylococcus [20]): 4 µg/mL; MIC90 (Staphylococcus [20]): > 8 µg/mL; Activity (Staphylococcus aureus [24]): 74.1%; Activity (Staphylococcus [29]): 3.1%; Activity (Staphylococcus [30]): 35.3%; Activity (Enterococcus faecalis [12]): 31.5%
5 | CN(C)[C@@H]1C(O)=C(C(N)=O)C(=O)[C@@]2(O)C(O)=C3C(=O)c4c(O)cccc4[C@@](C)(O)[C@H]3C[C@@H]12 [TETRACYCLINE] |  |  |  |  |  |  | ≤ 4 µg/mL | ≤ 4 µg/mL | ≤ 4 µg/mL | > 8 µg/mL |  |  |  |  |  | 93.7% | 86.7% | 83.4% |  |  | Activity (Staphylococcus aureus [15]): 5.8%; Activity (Staphylococcus aureus [16]): 18.4%; MIC (Staphylococcus aureus [17]): ≤ 4 µg/mL; MIC90 (Staphylococcus aureus [18]): > 8 µg/mL; MIC (Staphylococcus [19]): ≤ 4 µg/mL; Activity (Staphylococcus aureus [24]): 81.1%; Activity (Staphylococcus [29]): 12.6%; Activity (Staphylococcus [30]): 15.8%
6 | CC[C@H]1OC(=O)[C@H](C)[C@@H](O[C@H]2C[C@@](C)(OC)[C@@H](O)[C@H](C)O2)[C@H](C)[C@@H](O[C@@H]2O[C@H](C)C[C@H](N(C)C)[C@H]2O)[C@](C)(O)C[C@@H](C)C(=O)[C@H](C)[C@@H](O)[C@]1(C)O [ERYTHROMYCIN] |  |  |  |  |  |  | ≤ 0.25 µg/mL | > 2 µg/mL | ≤ 0.25 µg/mL | > 2 µg/mL | 0.25 µg/mL (≈ 0.341 µM) | 0.25 µg/mL (≈ 0.341 µM) | 2 µg/mL (≈ 2.73 µM) | 0.25 µg/mL (≈ 0.341 µM) | 2 µg/mL (≈ 2.73 µM) | 78.7% | 66% | 24.1% | 79.6% | 56% | Activity (Streptococcus [14]): 41.7%; Activity (Staphylococcus aureus [15]): 20.7%; Activity (Staphylococcus aureus [16]): 88.8%; MIC (Staphylococcus aureus [17]): ≤ 0.25 µg/mL; MIC50 (Staphylococcus aureus [18]): > 2 µg/mL; MIC (Staphylococcus [19]): ≤ 0.25 µg/mL; MIC50 (Staphylococcus [20]): > 2 µg/mL; MIC (Streptococcus [22]): 0.25 µg/mL (≈ 0.341 µM); Activity (Staphylococcus aureus [24]): 10.9%; Activity (Staphylococcus [29]): 33.6%; Activity (Staphylococcus [30]): 75.4%
7 | O=C(O)c1cn(C2CC2)c2cc(N3CCNCC3)c(F)cc2c1=O [CIPROFLOXACIN] | 1 µg/mL (≈ 3.02 µM) | > 4 µg/mL | 62.2% | 3.7% | 8.1% | 0.7% |  |  |  |  |  |  |  |  |  |  |  |  |  |  | Activity (Enterococcus faecalis [1]): 96.3%; Activity (Enterococcus faecium [3]): 83.7%; MIC50 (Enterococcus faecalis [5]): > 4 µg/mL; MIC90 (Enterococcus faecalis [5]): > 4 µg/mL; MIC50 (Enterococcus faecium [6]): > 4 µg/mL; MIC90 (Enterococcus faecium [6]): > 4 µg/mL; MIC50 (Enterococcus faecium [7]): > 4 µg/mL; MIC90 (Enterococcus faecium [7]): > 4 µg/mL; Activity (Enterococcus faecalis [12]): 33.6%
8 | CC1(C)S[C@@H]2[C@H](NC(=O)Cc3ccccc3)C(=O)N2[C@H]1C(=O)O [PENICILLIN G] |  |  |  |  |  |  |  |  |  |  | 0.015 µg/mL (≈ 0.0449 µM) | 0.015 µg/mL (≈ 0.0449 µM) | 0.06 µg/mL (≈ 0.179 µM) | 0.06 µg/mL (≈ 0.179 µM) | 1 µg/mL (≈ 2.99 µM) |  |  |  | 99.9% | 71.7% | Activity (Streptococcus [14]): 6%
9 | CN[C@H]1C(=O)N[C@@H]2Cc3ccc(cc3)Oc3cc4cc(c3O[C@@H]3O[C@H](C(=O)O)[C@@H](O)[C@H](O)[C@H]3NC(=O)CCCCCCCCC(C)C)Oc3ccc(cc3Cl)[C@@H](O)[C@@H]3NC(=O)[C@H](NC(=O)[C@@H]4NC(=O)[C@@H](NC2=O)c2cc(cc(O)c2Cl)Oc2cc1ccc2O)c1ccc(O)c(c1)-c1c(O[C@H]2O[C@H](CO)[C@@H](O)[C@H](O)[C@@H]2O)cc(O)cc1[C@@H](C(=O)NCCCN(C)C)NC3=O [DALBAVANCIN] | ≤ 0.03 µg/mL | 0.06 µg/mL (≈ 0.033 µM) | >99.9% | 27.8% | 99.6% | 11.4% | 0.06 µg/mL (≈ 0.033 µM) | 0.06 µg/mL (≈ 0.033 µM) | ≤ 0.03 µg/mL | 0.06 µg/mL (≈ 0.033 µM) | 0.03 µg/mL (≈ 0.0165 µM) | 0.03 µg/mL (≈ 0.0165 µM) | 0.03 µg/mL (≈ 0.0165 µM) | 0.03 µg/mL (≈ 0.0165 µM) | 0.03 µg/mL (≈ 0.0165 µM) | 100% | 99.8% | 99.2% | 100% | 100% | MIC50 (Staphylococcus aureus [18]): 0.06 µg/mL (≈ 0.033 µM); MIC90 (Staphylococcus aureus [18]): 0.06 µg/mL (≈ 0.033 µM); MIC (Staphylococcus [19]): ≤ 0.03 µg/mL; MIC90 (Staphylococcus [20]): 0.12 µg/mL (≈ 0.0661 µM); MIC (Enterococcus faecalis [4]): ≤ 0.03 µg/mL; MIC50 (Enterococcus faecalis [5]): > 4 µg/mL; MIC90 (Enterococcus faecalis [5]): > 4 µg/mL; MIC50 (Enterococcus faecium [6]): 0.06 µg/mL (≈ 0.033 µM); MIC90 (Enterococcus faecium [6]): 0.12 µg/mL (≈ 0.0661 µM); MIC50 (Enterococcus faecium [7]): > 4 µg/mL; MIC90 (Enterococcus faecium [7]): > 4 µg/mL; MIC (Streptococcus [22]): 0.03 µg/mL (≈ 0.0165 µM)
